Data as given in patent publication US20080293782A1, “1,1,3-Trioxo-1,2,5-Thiadiazolidines and Their Use as Ptp-Ases Inhibitors” (priority 2005, published 2008).

How the values were obtained:
human PTP-1B = biological target: T1, human PTP-1B (Homo sapiens, UniProt P18031); experiment: inhibitory activity (IC50) to human PTP-1B; assay type: biochemical
T1 construct: recombinant human PTP-1B[1-298] or PTP-1B[1-322]
T1 sequence (P18031 1-298 limits assumed): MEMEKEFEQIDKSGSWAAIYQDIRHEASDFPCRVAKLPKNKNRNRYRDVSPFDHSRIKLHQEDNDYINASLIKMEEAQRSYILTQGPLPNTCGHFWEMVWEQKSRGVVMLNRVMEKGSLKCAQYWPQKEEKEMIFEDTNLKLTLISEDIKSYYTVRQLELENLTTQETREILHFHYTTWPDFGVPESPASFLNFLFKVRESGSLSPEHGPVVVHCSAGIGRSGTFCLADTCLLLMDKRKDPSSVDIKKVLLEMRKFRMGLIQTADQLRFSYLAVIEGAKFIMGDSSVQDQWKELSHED
Procedure: For example, the PTP-1B inhibitory activity in vitro may be determined as follows:
Assessment of human PTP-1B (hPTP-1B) activity in the presence of various agents is determined by measuring the amount of inorganic phosphate released from a phosphopeptide substrate using a 96-well microtiter plate format. The assay (100 μL) is performed in an assay buffer comprised of 50 mM TRIS (pH 7.5), 50 mM NaCl, 3 mM DTT at ambient temperature. The assay is typically performed in the presence of 0.4% dimethyl sulfoxide (DMSO). However, concentrations as high as 10% are used with certain poorly soluble compounds. […] Inorganic phosphate, a product of the enzyme reaction, is quantitiated after 15 min as the green color resulting from complexing with the Malichite reagent and is determined as an A620 using a Molecular Devices (Sunnyvale, Calif.) SpectraMAX Plus spectrophotometer. […] Activity is defined as the net change in absorbance resulting from the activity of the uninhibited hPTP-1B[1-411] minus that of a tube with acid-inactivated hPTP-1B[1-411]. […]
Alternatively, the assessment of human PTP-1B activity in the presence of various agents may be determined by measuring the hydrolysis products of known competing substrates. […]

IC50 (human PTP-1B)	melting point	Structure (SMILES)
86 nM		N#CCCCn1cc(-c2ccc(O)c(N3CC(=O)NS3(=O)=O)c2)cn1 [Example No. 13-7, 4-{4-[4-Hydroxy-3-(1,1,4-trioxo-1,2,5-thiadiazolidin-2-yl)-phenyl]-1H-pyrazol-1-yl}-butyronitrile]
	153 to 157 °C	O=C1CN(c2cc(Oc3ccccc3)ccc2O)S(=O)(=O)N1 [Example 14, 5-(2-Hydroxy-5-phenoxyphenyl)-1,1-dioxo-1,2,5-thiadiazolidin-3-one]
80 nM		O=C1CN(c2cc(-c3cn[nH]c3)ccc2O)S(=O)(=O)N1 [Example No. 2-5, 5-[2-Hydroxy-5-(1H-pyrazol-4-yl)-phenyl]-1,1-dioxo-1,2,5-thiadiazolidin-3-one]
